What follows are compounds tested against NQO1 protein (Homo sapiens, UniProt P15559) (assay: In vitro NQO1 enzyme activity assay (cytochrome C reduction, absorbance at 550 nm)). Conditions: NQO1 2 ng, 10 nM Compound (Table 1).
Type: biochemical
Experimental: In order to evaluate the activity of the synthesized compound in NQO1, the experiments were performed as follows:
The synthesized compound was dissolved in DMSO to make a 10 mM stock solution, which was further diluted with DMSO to 250 μM so as to prepare a working solution. For experimental groups, the working solution of the compound was added to an enzyme reaction solution in which 50 μL of 1.54 mM Cytochrome C solution was added to 900 μL of 50 mM Tris-HCl (pH7.5) containing 0.14% BSA. For negative control groups, DMSO not containing the compound of the invention was added to the enzyme reaction solution as above. For each experimental and control group, 20 μL of 100 ng/mL NQO1 protein was added, and then 10 μL of 20 mM NADH was added to bring up the total volume to 1 mL. The change of absorbance was measured at 550 nm for 10 minutes using 1 mL cuvette. The kinetics of reaction was measured by the increase of absorbance as the cytochrome C was reduced at 550 nm over 10 minutes. The activity of NQO1 was measured by the amount of cytochrome C that is being reduced (nmol cytochrome C that was reduced/min/ug NQO1 protein). • Absorption coefficient of Cytochrome C: 21.1 (μmol/mL)^−1cm^−1 • BSA: Bovine Serum Albumin • […]: Tris(hydroxymethyl)aminomethane hydrochloride (buffer solution) • Equipment=Cary 100 UV-Vis Spectrophotometer • The results are shown in Tables 1 to 8.

Chain of NQO1 protein (P15559 whole entry, species assumed): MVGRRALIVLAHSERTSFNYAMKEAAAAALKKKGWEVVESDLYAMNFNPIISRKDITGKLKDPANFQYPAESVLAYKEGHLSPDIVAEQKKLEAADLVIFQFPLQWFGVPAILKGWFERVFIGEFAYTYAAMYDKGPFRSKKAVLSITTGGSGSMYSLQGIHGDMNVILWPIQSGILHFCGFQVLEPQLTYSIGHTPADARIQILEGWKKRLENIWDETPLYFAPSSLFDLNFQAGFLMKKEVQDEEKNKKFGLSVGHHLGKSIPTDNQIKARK

SMILES | NQO1 activity assay Cytochrome C reduced/min/μg NQO1 protein
Cc1nn(-c2ccc(Cl)cc2)c2c1C(=O)C(=O)c1ccccc1-2 [Compound 26, 1-(4-Chlorophenyl)-3-methyl-1H-benzo[g]indazol-4,5-dione] | 465 nmol cytochrome C that was reduced/min/ug NQO1 protein
Cc1nn(-c2cc(F)cc(F)c2)c2c1C(=O)C(=O)c1ccccc1-2 [Compound 27, 1-(3,5-Difluorophenyl)-3-methyl-1H-benzo[g]indazol-4,5-dione] | 415 nmol cytochrome C that was reduced/min/ug NQO1 protein
Cc1nn(-c2ccc(Cl)cc2Cl)c2c1C(=O)C(=O)c1ccccc1-2 [Compound 28, 1-(2,4-Dichlorophenyl)-3-methyl-1H-benzo[g]indazol-4,5-dione] | 745 nmol cytochrome C that was reduced/min/ug NQO1 protein
Cc1ccc(-n2nc(C)c3c2-c2ccccc2C(=O)C3=O)cc1 [Compound 29, 3-Methyl-1-p-tolyl-1H-benzo[g]indazol-4,5-dione] | 668 nmol cytochrome C that was reduced/min/ug NQO1 protein
Cc1nn(-c2ccccn2)c2c1C(=O)C(=O)c1ccccc1-2 [Compound 30, 3-Methyl-1-(pyridin-2-yl)-1H-benzo[g]indazol-4,5-dione] | 494 nmol cytochrome C that was reduced/min/ug NQO1 protein
Cc1nn(-c2cccnc2)c2c1C(=O)C(=O)c1ccccc1-2 [Compound 31, 3-Methyl-1-(pyridin-3-yl)-1H-benzo[g]indazol-4,5-dione] | 900 nmol cytochrome C that was reduced/min/ug NQO1 protein
Cc1nn(-c2ccc(F)cc2F)c2c1C(=O)C(=O)c1ccccc1-2 [Compound 32, 1-(2,4-Difluorophenyl)-3-methyl-1H-benzo[g]indazol-4,5-dione] | 839 nmol cytochrome C that was reduced/min/ug NQO1 protein
O=C1C(=O)c2cnn(-c3ccccc3)c2-c2ccccc21 [Compound 33, 1-Phenyl-1H-benzo[g]indazol-4,5-dione] | 436 nmol cytochrome C that was reduced/min/ug NQO1 protein
O=C1C(=O)c2c(C(F)(F)F)nn(-c3ccccc3)c2-c2ccccc21 [Compound 34, 1-Phenyl-3-(trifluoromethyl)-1H-benzo[g]indazol-4,5-dione] | 716 nmol cytochrome C that was reduced/min/ug NQO1 protein
Cc1nn(-c2ccccc2)c2c1C(=O)C(=O)c1cc(F)ccc1-2 [Compound 35, 7-Fluoro-3-methyl-1-phenyl-1H-benzo[g]indazol-4,5-dione] | 694 nmol cytochrome C that was reduced/min/ug NQO1 protein

Same assay, conditions: NQO1 2 ng, 50 nM Compound (Table 2)

SMILES | NQO1 activity assay Cytochrome C reduced/min/μg NQO1 protein
Cc1nn(-c2cc(Cl)cc(Cl)c2)c2c1C(=O)C(=O)c1ccccc1-2 [Compound 36, 1-(3,5-Dichlorophenyl)-3-methyl-1H-benzo[g]indazol-4,5-dione] | 1873 nmol cytochrome C that was reduced/min/ug NQO1 protein
Cc1nn(-c2ccc(C(=O)O)cc2)c2c1C(=O)C(=O)c1ccccc1-2 [Compound 37, 4-(3-Methyl-4,5-dioxo-4,5-dihydro-1H-benzo[g]indazol-1-yl)benzoic acid] | 1034 nmol cytochrome C that was reduced/min/ug NQO1 protein
Cc1n[nH]c2c1C(=O)C(=O)c1ccccc1-2 [Compound 43, 3-Methyl-1H-benzo[g]indazol-4,5-dione] | 1008 nmol cytochrome C that was reduced/min/ug NQO1 protein

Same assay, conditions: NQO1 2 ng, 50 nM Compound (Table 3)

SMILES | NQO1 activity assay Cytochrome C reduced/min/μg NQO1 protein
Cc1nn(-c2nccs2)c2c1C(=O)C(=O)c1ccccc1-2 [Compound 40, 3-Methyl-1-(thiazol-2-yl)-1H-benzo[g]indazol-4,5-dione] | 2041 nmol cytochrome C that was reduced/min/ug NQO1 protein
Cc1nn(-c2ccncc2)c2c1C(=O)C(=O)c1ccccc1-2 [Compound 41, 3-Methyl-1-(pyridin-4-yl)-1H-benzo[g]indazol-4,5-dione] | 1617 nmol cytochrome C that was reduced/min/ug NQO1 protein
Cc1c2c(nn1-c1ccncc1)-c1ccccc1C(=O)C2=O [Compound 42, 3-Methyl-2-(pyridin-4-yl)-2H-benzo[g]indazol-4,5-dione] | 3212 nmol cytochrome C that was reduced/min/ug NQO1 protein
Cc1c2c(nn1S(=O)(=O)c1ccccc1)-c1ccccc1C(=O)C2=O [Compound 44, 3-Methyl-2-(phenylsulfonyl)-2H-benzo[g]indazol-4,5-dione] | 2169 nmol cytochrome C that was reduced/min/ug NQO1 protein

Same assay, conditions: NQO1 2 ng, 50 nM Compound (Table 4)

SMILES | NQO1 activity assay Cytochrome C reduced/min/μg NQO1 protein
Cc1nn(-c2cccc3ccccc23)c2c1C(=O)C(=O)c1ccccc1-2 [Compound 38, 3-Methyl-1-(naphthalen-1-yl)-1H-benzo[g]indazol-4,5-dione] | 2696 nmol cytochrome C that was reduced/min/ug NQO1 protein
Cc1nn(-c2cncc(Cl)c2)c2c1C(=O)C(=O)c1ccccc1-2 [Compound 39, 1-(5-Chloropyridin-3-yl)-3-methyl-1H-benzo[g]indazol-4,5-dione] | 3285 nmol cytochrome C that was reduced/min/ug NQO1 protein

Same assay, conditions: NQO1 2 ng, 50 nM Compound (Table 5)

SMILES | NQO1 activity assay Cytochrome C reduced/min/μg NQO1 protein
Cc1c2c(nn1S(=O)(=O)c1ccc(F)cc1)-c1ccccc1C(=O)C2=O [Compound 45, 3-Methyl-2-(4-Fluorophenylsulfonyl)-2H-benzo[g]indazol-4,5-dione] | 2092 nmol cytochrome C that was reduced/min/ug NQO1 protein
Cc1c2c(nn1S(=O)(=O)c1ccccc1Cl)-c1ccccc1C(=O)C2=O [Compound 46, 2-(2-Chlorophenylsulfonyl)-3-methyl-2H-benzo[g]indazol-4,5-dione] | 1522 nmol cytochrome C that was reduced/min/ug NQO1 protein
Cc1c2c(nn1S(=O)(=O)c1cccc(Cl)c1)-c1ccccc1C(=O)C2=O [Compound 47, 2-(3-Chlorophenylsulfonyl)-3-methyl-2H-benzo[g]indazol-4,5-dione] | 1277 nmol cytochrome C that was reduced/min/ug NQO1 protein
Cc1c2c(nn1S(=O)(=O)c1cccnc1)-c1ccccc1C(=O)C2=O [Compound 48, 3-Methyl-2-(pyridin-3-ylsulfonyl)-2H-benzo[g]indazol-4,5-dione] | 1749 nmol cytochrome C that was reduced/min/ug NQO1 protein

Same assay, conditions: NQO1 2 ng, 50 nM Compound (Table 6)

SMILES | NQO1 activity assay Cytochrome C reduced/min/μg NQO1 protein
Cc1c2c(nn1S(=O)(=O)c1ccc(Cl)cc1)-c1ccccc1C(=O)C2=O [Compound 49, 2-(4-Chlorophenylsulfonyl)-3-methyl-2H-benzo[g]indazol-4,5-dione] | 2171 nmol cytochrome C that was reduced/min/ug NQO1 protein
Cc1ccc(S(=O)(=O)n2nc3c(c2C)C(=O)C(=O)c2ccccc2-3)cc1 [Compound 50, 3-Methyl-2-tosyl-2H-benzo[g]indazol-4,5-dione] | 1542 nmol cytochrome C that was reduced/min/ug NQO1 protein
COc1ccc(S(=O)(=O)n2nc3c(c2C)C(=O)C(=O)c2ccccc2-3)cc1 [Compound 51, 2-(4-Methoxyphenylsulfonyl)-3-methyl-2H-benzo[g]indazol-4,5-dione] | 1288 nmol cytochrome C that was reduced/min/ug NQO1 protein
